Assay results as given in US20240199661A1, “BICYCLIC HETEROARYL PHOSPHONATE DERIVATIVES AS ECTONUCLEOTIDE PYROPHOSPHATASE PHOSPHODIESTERASE 1 INHIBITORS” (RIBOSCIENCE LLC, priority 2021, published 2024).
pKi: −log10 of the molar value. Where a name gives a salt, the structure may show the parent alone.

Assays:
[1] = biological target: T1, ENPP1 (Homo sapiens, UniProt P22413); assay: Measurement of pNP-TMP hydrolysis by ENPP1 (enzyme activity assay, absorbance at 405 nm); assay type: biochemical; details: purified ENPP1, 500 μM pNP-TMP, Km 232 μM; Ki from IC50 by Cheng-Prusoff
T1 sequence (P22413 1-925): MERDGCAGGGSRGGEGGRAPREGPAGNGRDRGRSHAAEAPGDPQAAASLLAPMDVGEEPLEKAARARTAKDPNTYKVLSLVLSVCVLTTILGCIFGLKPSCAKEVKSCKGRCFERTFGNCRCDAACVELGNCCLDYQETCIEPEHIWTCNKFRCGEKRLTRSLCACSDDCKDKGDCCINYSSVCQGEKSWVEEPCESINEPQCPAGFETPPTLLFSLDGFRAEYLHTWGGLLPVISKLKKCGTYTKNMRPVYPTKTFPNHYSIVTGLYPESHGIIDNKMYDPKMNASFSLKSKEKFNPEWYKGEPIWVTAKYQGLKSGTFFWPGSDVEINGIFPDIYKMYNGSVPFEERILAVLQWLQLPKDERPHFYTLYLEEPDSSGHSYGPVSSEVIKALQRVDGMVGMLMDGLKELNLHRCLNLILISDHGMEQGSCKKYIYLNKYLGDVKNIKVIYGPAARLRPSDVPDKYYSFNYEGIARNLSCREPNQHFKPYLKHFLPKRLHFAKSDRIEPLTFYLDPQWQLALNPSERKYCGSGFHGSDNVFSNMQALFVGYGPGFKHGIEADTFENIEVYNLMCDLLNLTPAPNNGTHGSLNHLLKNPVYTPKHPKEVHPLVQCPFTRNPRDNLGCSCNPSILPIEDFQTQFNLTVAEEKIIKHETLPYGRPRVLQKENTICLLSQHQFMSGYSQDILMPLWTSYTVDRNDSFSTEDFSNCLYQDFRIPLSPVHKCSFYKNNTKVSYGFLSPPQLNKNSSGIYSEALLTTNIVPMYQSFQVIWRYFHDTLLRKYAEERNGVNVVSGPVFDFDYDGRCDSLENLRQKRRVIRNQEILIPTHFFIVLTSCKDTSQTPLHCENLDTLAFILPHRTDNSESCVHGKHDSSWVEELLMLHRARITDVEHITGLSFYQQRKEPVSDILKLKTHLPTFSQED
Procedure: Measurement of pNP-TMP Hydrolysis by ENPP1
p-Nitrophenyl thymidine 5′-monophosphate (pNP-TMP) is a synthesized substrate for ENPP1. The ENPP1 enzyme activity assay with pNP-TMP substrate was conducted as follows:
First, in a 60 μl reaction, 7.5 ng purified ENPP1 was mixed with compounds of Formula (I) (test compound) ranging from 13.7 pM to 10 μM. Incubation of ENPP1 with compounds was set at 25° C. for 10 min. Reactions with DMSO only (with ENPP1 but no compound) gave the fastest reaction (MAX Activity). For each compound dilution, wells with assay buffer (50 mM Tris-HCl, pH8.8, 250 mM NaCl, 0.1 mg/ml BSA, 1% DMSO) only but no ENPP1 were included as controls for subtraction of test compound derived absorbance at 405 nm.
Second, after the 10 minutes ENPP1 and test compound incubation the assay was initiated by transferring 50 μl of the above mentioned ENPP1/test compound reaction into 50 μl of 1 mM pNP-TMP in assay buffer results in a 100 μl total reaction in clear bottom 96 well plates. Absorbance at 405 nm was recorded immediately in kinetic mode by PerkinElmer 2300 Enspire multimode plate reader.
For each inhibitor, the specific ENPP1 activity was calculated using the following equation: ENPP1 activity (pmol/min/μg)=Adjusted Vmax (OD405 nm/min)×conversion factor (pmol/OD405 nm)/amount of enzyme (μg)
Adjusted Vmax=V0×(Km+(S))/(S). In this assay, Km=232 μM, (S)=500 μM. Adjusted Vmax=1.464×V0.
V0=(OD405 nm with ENPP1−OD405 nm ENPP1 blank)/minutes. OD405 nm was plotted, with blank subtracted, against time (minutes), the initial linear rate is V0. […]
The conversion factor (pmol/OD405 nm), was determined by plotting the amount of standard, 4-Nitrophenol (Sigma-Aldrich, Catalog #241326), against absorbance at 405 nm. The slope is the conversion factor. The percent ENPP1 activity for each sample was calculated using the following equation:
% enzyme activity=sample enzyme activity/MAX Activity×100%.
To determine the IC50 for each compound, compound concentration values and percent enzyme activity values were inserted into GraphPad Prism (GraphPad Prism version 7.0 for Windows, GraphPad Software, La Jolla California USA, www.graphpad.com), and Prism's Transform analysis was used to convert the x-axis values (compound concentration) to logarithms. A sigmoidal variable slope nonlinear regression analysis was performed using the following equation: Y=Bottom+(Top−Bottom)/(1+10^((Log IC50−X)*HillSlope)).
Ki values for each compound were calculated from the observed IC50 from GraphPad analysis using the Cheng-Prusoff equation: Ki=IC50/(1+(S)/KM). (S) here is 500 μM and KM is determined to be 232 μM.

[2] = tested on: HGS tumor model; assay: Anti-tumor activity in HGS tumor model; assay type: in vivo

pKi [1]	SMILES	antitumor activity ([2]; 20/kg of compound)	tumor size ([2]; animals treated with 20/kg of compound, day 42 after inoculation (vehicle 645)) [mm3]
–	C=CC(=O)N1CCN(CCCn2c(=O)c(-c3c(Cl)c(OC)cc(OC)c3Cl)cc3cnc(NC)nc32)CC1 [8-(3-(4-acryloylpiperazin-1-yl)propyl)-6-(2,6-dichloro-3,5-dimethoxyphenyl)-2-(methylamino)pyrido[2,3-d]pyrimidin-7(8H)-one]	significant antitumor activity and induced tumor regression	55
> 5.00	CNC(=O)c1c[nH]c2c(N3CCC(CCCP(=O)(O)O)CC3)ncnc12 [Compound 11, 3-[1-[7-(methylcarbamoyl)-5H-pyrrolo[3,2-d]pyrimidin-4-yl]-piperidin-4-yl]propylphosphonic acid]	–	–
> 6.00	NC(=O)c1n[nH]c2c(NCc3ccc(P(=O)(O)O)cc3)ncnc12 [Compound 14, 4-[([3-carbamoyl-1H-pyrazolo[4,3-d]pyrimidin-7-yl]amino)methyl]-phenylphosphonic acid]	–	–
> 6.00	CC(C)c1nc(NCc2ccc(P(=O)(O)O)cc2)c2[nH]ncc2n1 [Compound 18, 4-[([5-isopropyl-1H-pyrazolo[4,3-d]pyrimidin-7-yl]amino)methyl]phenylphosphonic acid formic acid salt]	–	–
> 7.00	O=P(O)(O)c1ccc(CNc2ncnc3ccsc23)cc1 [Compound 16, 4-([thieno[3,2-d]pyrimidin-4-ylamino]methyl)phenyl-phosphonic acid]	–	–
> 6.00	CNC(=O)c1c[nH]c2c(NCc3ccc(CP(=O)(O)O)cc3)ncnc12 [Compound 4, [4-([[7-(methylcarbamoyl)-5H-pyrrolo[3,2-d]pyrimidin-4-yl]amino]-methyl)phenyl]methylphosphonic acid]	–	–
> 6.00	CNC(=O)c1c[nH]c2c(NCc3ccc(P(=O)(O)O)cc3)ncnc12 [Compound 3, 4-([[7-(methylcarbamoyl)-5H-pyrrolo[3,2-d]pyrimidin-4-yl]amino]-methyl)phenylphosphonic acid]	–	–
> 6.00	CC(C)c1nc(NCc2ccc(P(=O)(O)O)cc2)c2c(cnn2C)n1 [Compound 17, 4-(((5-isopropyl-1-methyl-1H-pyrazolo[4,3-d]pyrimidin-7-yl)amino)methyl)phenyl-phosphonic acid]	–	–
> 6.00	CNC(=O)c1c[nH]c2c(N3CCC(CP(=O)(O)O)CC3)ncnc12 [Compound 9, [1-[7-(methylcarbamoyl)-5H-pyrrolo[3,2-d]pyrimidin-4-yl]piperidin-4-yl]methylphosphonic acid]	–	–
> 7.00	CC(=O)Nc1csc2c(NCc3ccc(P(=O)(O)O)cc3)ncnc12 [Compound 15, 4-[([7-acetamidothieno[3,2-d]pyrimidin-4-yl]amino)methyl]-phenylphosphonic acid]	–	–
> 7.00	Cn1ncc2ncnc(NCc3ccc(P(=O)(O)O)cc3)c21 [Compound 1, 4-[([1-methylpyrazolo[4,3-d]pyrimidin-7-yl]amino)methyl]-phenyl-phosphonic acid]	–	–
> 7.00	O=P(O)(O)c1ccc(CNc2ncnc3cn[nH]c23)cc1 [Compound 12, 4-([1H-pyrazolo[4,3-d]pyrimidin-7-ylamino]methyl)phenyl-phosphonic acid]	–	–
> 6.00	CNC(=O)c1c[nH]c2c(N3CCC(CCP(=O)(O)O)CC3)ncnc12 [Compound 6, 2-[1-[7-(methylcarbamoyl)-5H-pyrrolo[3,2-d]pyrimidin-4-yl]-piperidin-4-yl]ethylphosphonic acid]	–	–

SMILES	pKi [1]	antitumor activity ([2]; 20/kg of compound)	tumor size ([2]; animals treated with 20/kg of compound, day 42 after inoculation (vehicle 645)) [mm3]
CCOP(=O)(O)CCCC1CCN(c2ncnc3c(C(=O)NC)c[nH]c23)CC1 [Compound 10, ethoxy(3-[1-[7-(methylcarbamoyl)-5H-pyrrolo[3,2-d]pyrimidin-4-yl]-piperidin-4-yl]propyl)phosphinic acid]	< 5.00	–	–
CCOP(=O)(O)c1ccc(CNc2ncnc3c(C(=O)NC)c[nH]c23)cc1 [Compound 2, ethoxy(4-([[7-(methylcarbamoyl)-5H-pyrrolo[3,2-d]pyrimidin-4-yl]-amino]methyl)phenyl)phosphinic acid]	< 5.00	–	–
CCOP(=O)(CC1CCN(c2ncnc3c(C(=O)NC)c[nH]c23)CC1)OCC (single isomer, unassigned) [Compound 7, diethyl [1-[7-(methylcarbamoyl)-5H-pyrrolo[3,2-d]pyrimidin-4-yl]-piperidin-4-yl]methylphosphonate]	< 5.00	–	–
